From US10053458B2, “Pyrimidine-2,4-diamine derivative and anticancer pharmaceutical composition comprising same as effective ingredient” (KOREA RESEARCH INSTITUTE OF CHEMICAL TECHNOLOGY, priority 2014, dated 2018)
Structures can show the parent of a compound that is named as a salt. Where two headings read alike, the source gives them in different places.

Columns and labels:
[1] = tested on: H2228; experiment: Cancer cell proliferation inhibition (SRB/MTS), H2228; details: read-out: H2228 GI50
Experimental: (§1) Cancer cell lines used in the experiments were all human-derived cancer cell lines, specifically H2228 and H3122, which are non-small cell lung cancer cell lines.
(§2) The cancer cell proliferation inhibition was measured using the MTS assay as follows. […] Each culture medium was placed in an incubator for 4 hours, taken out and left at room temperature for 10 minutes.

[2] = tested on: H3122; experiment: Cancer cell proliferation inhibition (SRB/MTS), H3122; details: read-out: H3122 GI50
Experimental: as §1, §2

[3] = tested on: BaF3 EML4-ALK WT cells; experiment: Cytotoxicity on BaF3 cell transfected with EML4-ALK WT (WST-1); details: Ba/F3 EML4-ALK, 72 h, read-out: BaF3 EML4-ALK WT, IC50 of the cytotoxicity

SMILES	GI50 ([1]; Homo sapiens, NCI-H2228, 72 h) [nM]	GI50 ([2]; Homo sapiens, NCI-H3122, 72 h) [nM]	IC50 [3] [nM]	GI50 [1] [nM]	GI50 [2] [nM]	GI50 ([1]; hydrochloride) [nM]	GI50 ([2]; hydrochloride) [nM]
C[C@@H](Oc1cc(-c2cnn(C3CCNCC3)c2)cnc1N)c1c(Cl)ccc(F)c1Cl [Comparative Example 1, Crizotinib, reference compound]	85	280	–	–	–	–	–
COc1cc2c(cc1Nc1ncc(Cl)c(Nc3ccccc3S(=O)(=O)C(C)C)n1)C1(CCCC1)CNC2 [Example 14, 5-chloro-N4-(2-(isopropylsulfonyl)phenyl)-N2-(7-methoxy-2,3-dihydro-1H-spiro[cyclopentane-1,4-isoquinoline]-6-yl)pyrimidine-2,4-diamine]	< 50	< 50	–	–	–	–	–
CC(C)COc1cc2c(cc1Nc1ncc(Cl)c(Nc3ccccc3S(=O)(=O)C(C)C)n1)CCN(C(=O)C(F)(F)F)C2 [Example 19, 1-(6-(5-chloro-4-(2-(isopropylsulfonyl)phenylamino)pyrimidin-2-yl)amino-7-isobutoxy-3,4-dihydroisoquinolin-2(1H)-yl)-2,2,2-trifluoroethane-1-one]	< 50	< 50	< 50	–	–	–	–
COc1cc2c(cc1Nc1ncc(Cl)c(Nc3ccccc3S(=O)(=O)C(C)C)n1)CCNC2C (stereo not drawn) [Example 25]	< 50	8.9	–	–	–	–	–
CCC1NCCc2cc(Nc3ncc(Cl)c(Nc4ccccc4S(=O)(=O)C(C)C)n3)c(OC)cc21 (stereo not drawn) [Example 27]	< 50	8.4	–	–	–	–	–
COc1cc2c(cc1Nc1ncc(Cl)c(Nc3ccccc3S(=O)(=O)C(C)C)n1)CCNC2C(C)C (stereo not drawn) [Example 28]	< 50	21	13	–	–	–	–
COc1cc2c(cc1Nc1ncc(Cl)c(Nc3ccccc3S(=O)(=O)C(C)C)n1)CC1(CC1)N(C(=O)C(F)(F)F)C2C (stereo not drawn) [Example 29]	< 50	< 50	< 50	–	–	–	–
COc1cc2c(cc1Nc1ncc(Cl)c(Nc3ccccc3S(=O)(=O)C(C)C)n1)CC1(CC1)NC2C (stereo not drawn) [Example 30, 5-chloro-N4-(2-(isopropylsulfonyl)phenyl)-N2-(7-methoxy-1methyl-1,4-dihydro-2H-spiro[cyclopropane-1,3-isoquinoline]-6-yl)pyrimidine-2,4-diamine]	< 50	< 50	5	–	–	–	–
COc1cc2c(cc1Nc1ncc(Cl)c(Nc3ccccc3S(=O)(=O)C(C)C)n1)CCN(Cc1ccccc1)C2(C)C [Example 31, 5-chloro-N4-(2-(isopropylsulfonyl)phenyl)-N2-(2-benzyl-7-methoxy-1,1-dimethyl-1,2,3,4-tetrahydroisoquinolin-6-yl)pyrimidine-2,4-diamine]	< 50	< 50	< 50	–	–	–	–
COc1cc2c(cc1Nc1ncc(Cl)c(Nc3ccccc3S(=O)(=O)C(C)C)n1)CCN(C(=O)C(F)(F)F)C2(C)C [Example 32, 1-(6-(5-chloro-4-(2-(isopropylsulfonyl)phenylamino)pyrimidin-2-yl)amino-7-methoxy-1,1-dimethyl-3,4-dihydroisoquinolin-2(1H)-yl)-2,2,2-trifluoroethane-1-one]	< 50	< 50	< 50	–	–	–	–
COc1cc2c(cc1Nc1ncc(Cl)c(Nc3ccccc3S(=O)(=O)C(C)C)n1)CCNC2(C)C [Example 33, 5-chloro-N4-(2-(isopropylsulfonyl)phenyl)-N2-(7-methoxy-1,1-dimethyl-1,2,3,4-tetrahydroisoquinolin-6-yl)pyrimidine-2,4-diamine]	–	–	–	18	11	–	–
COc1cc2c(cc1Nc1ncc(Cl)c(Nc3ccccc3S(=O)(=O)C(C)C)n1)CN(C)CC2 [Example 35, 5-chloro-N4-(2-(isopropylsulfonyl)phenyl)-N2-(6-methoxy-2-methyl-1,2,3,4-tetrahydroisoquinolin-7-yl)pyrimidine-2,4-diamine]	< 50	< 50	–	–	–	–	–
COc1cc2c(cc1Nc1ncc(Cl)c(Nc3ccccc3S(=O)(=O)C(C)C)n1)C(=O)NCC2 [Example 44]	< 50	< 50	< 50	–	–	–	–
COc1cc2c(cc1Nc1ncc(Cl)c(Nc3ccccc3S(=O)(=O)C(C)C)n1)C(C)NCC2 (stereo not drawn) [Example 46]	< 50	< 50	< 50	–	–	–	–
CC(C)Oc1cc2c(cc1Nc1ncc(Cl)c(Nc3ccccc3S(=O)(=O)C(C)C)n1)CCNC2C (stereo not drawn) [Example 70, 5-chloro-N4-(2-(isopropylsulfonyl)phenyl)-N2-(7-isopropoxy-1-methyl-1,2,3,4-tetrahydroisoquinolin 6 yl)pyrimidine-2,4-diamine]	< 50	< 50	< 50	–	–	–	–
CC(C)Oc1cc2c(cc1Nc1ncc(Cl)c(Nc3ccccc3S(=O)(=O)C(C)C)n1)CCNC2(C)C [Example 71, 5-chloro-N4-(2-(isopropylsulfonyl)phenyl)-N2-(7-isopropoxy-1,1-dimethyl-1,2,3,4-tetrahydroisoquinolin-6-yl)pyrimidine-2,4-diamine]	< 50	< 50	< 50	–	–	–	–
COc1cc2c(cc1Nc1ncc(Cl)c(Nc3ccccc3S(=O)(=O)C(C)C)n1)C(C)(C)NCC2 [Example 72, 5-chloro-N4-(2-(isopropylsulfonyl)phenyl)-N2-(6-methoxy-1,1-dimethyl-1,2,3,4-tetrahydroisoquinolin-7-yl)pyrimidine-2,4-diamine]	< 50	< 50	< 50	–	–	–	–
CCC1(C)NCCc2cc(Nc3ncc(Cl)c(Nc4ccccc4S(=O)(=O)C(C)C)n3)c(OC)cc21 (stereo not drawn) [Example 73, 5-chloro-N4-(2-(isopropylsulfonyl)phenyl)-N2-(l-ethyl-7-methoxy-1-methyl-1,2,3,4-tetrahydroisoquinolin-6-yl)pyrimidine-2,4-diamine]	< 50	< 50	< 50	–	–	–	–
COc1cc2c(cc1Nc1ncc(Cl)c(Nc3ccccc3S(=O)(=O)C(C)C)n1)CCN1C(=O)CNCC21 (stereo not drawn) [Example 84]	< 50	< 50	–	–	–	–	–
COc1cc2c(cc1Nc1ncc(Cl)c(Nc3ccccc3S(=O)(=O)C(C)C)n1)C1CNCC(=O)N1CC2 (stereo not drawn) [Example 97]	< 50	< 50	–	–	–	–	–
COc1cc2c(cc1Nc1ncc(Cl)c(Nc3ccccc3S(=O)(=O)C(C)C)n1)CCNC2(C)C [Example 101, 5-chloro-N4-(2-(isopropylsulfonyl)phenyl)-N2-(7-methoxy-1,1-dimethyl-1,2,3,4-tetrahydroisoquinolin-6-yl)pyrimidine-2,4-diamine hydrochloride]	–	–	–	–	–	< 50	< 50

The next lines start with results.

GI50 ([1]; Homo sapiens, NCI-H2228, 72 h) [nM]	GI50 ([2]; Homo sapiens, NCI-H3122, 72 h) [nM]	SMILES	IC50 [3] [nM]	GI50 [1] [nM]	GI50 [2] [nM]	GI50 ([1]; hydrochloride) [nM]	GI50 ([2]; hydrochloride) [nM]
15	< 50	COc1cc2c(cc1Nc1ncc(Cl)c(Nc3ccccc3S(=O)(=O)C(C)C)n1)CNC2 [Example 1, 5-chloro-N4-(2-(isopropylsulfonyl)phenyl)-N2-(6-methoxyisoindolin-5-yl)pyrimidine-2,4-diamine]	< 50	–	–	–	–
< 50	< 50	COc1cc2c(cc1Nc1ncc(Cl)c(Nc3ccccc3S(=O)(=O)C(C)C)n1)C(C)(C)CN(C(=O)C(F)(F)F)C2 [Example 11, 1-(6-(5-chloro-4-(2-(isopropylsulfonyl)phenylamino)pyrimidin-2-yl)amino-7-methoxy-4,4-dimethyl-3,4-dihydroisoquinolin-2(1H)-yl)-2,2,2-trifluoroethane-1-one]	< 50	–	–	–	–
< 50	< 50	COc1cc2c(cc1Nc1ncc(Cl)c(Nc3ccccc3S(=O)(=O)C(C)C)n1)C(C)(C)CNC2 [Example 12, 5-chloro-N4-(2-(isopropylsulfonyl)phenyl)-N2-(7-methoxy-4,4-dimethyl-1,2,3,4-tetrahydroisoquinolin-6-yl)pyrimidine-2,4-diamine]	< 50	–	–	–	–
< 50	< 50	COc1cc2c(cc1Nc1ncc(Cl)c(Nc3ccccc3S(=O)(=O)C(C)C)n1)C1(CCCC1)CN(C(=O)C(F)(F)F)C2 [Example 13, 1-(6-(5-chloro-4-(2-(isopropylsulfonyl)phenylamino)pyrimidin-2-yl)amino-7-methoxy-1H-spiro[cyclopentane-1,4-isoquinoline]-2(3H)-yl)-2,2,2-trifluoroethane-1-one]	< 50	–	–	–	–
< 50	< 50	COc1cc2c(cc1Nc1ncc(Cl)c(Nc3ccccc3S(=O)(=O)C(C)C)n1)C1(CCCCC1)CN(C(=O)C(F)(F)F)C2 [Example 15, 1-(6-(5-chloro-4-(2-(isopropylsulfonyl)phenylamino)pyrimidin-2-yl)amino-7-methoxy-1H-spiro[cyclohexane-1,4-isoquinoline]-2(3H)-yl)-2,2,2-trifluoroethane-1-one]	< 50	–	–	–	–
< 50	< 50	COc1cc2c(cc1Nc1ncc(Cl)c(Nc3ccccc3S(=O)(=O)C(C)C)n1)C1(CCCCC1)CNC2 [Example 16, 5-chloro-N4-(2-(isopropylsulfonyl)phenyl)-N2-(7-methoxy-2,3-dihydro-1H-spiro[cyclohexane-1,4-isoquinoline]-6-yl)pyrimidine-2,4-diamine]	< 50	–	–	–	–
< 50	< 50	CC(C)Oc1cc2c(cc1Nc1ncc(Cl)c(Nc3ccccc3S(=O)(=O)C(C)C)n1)CCN(C(=O)C(F)(F)F)C2 [Example 17, 1-(6-(5-chloro-4-(2-(isopropylsulfonyl)phenylamino)pyrimidin-2-yl)amino-7-isopropoxy-3,4-dihydroisoquinolin-2(1H)-yl)-2,2,2-trifluoroethane-1-one]	< 50	–	–	–	–
< 50	< 50	CCC(C)Oc1cc2c(cc1Nc1ncc(Cl)c(Nc3ccccc3S(=O)(=O)C(C)C)n1)CCN(C(=O)C(F)(F)F)C2 (stereo not drawn) [Example 21]	< 50	–	–	–	–
< 50	< 50	COc1cc2c(cc1Nc1ncc(Cl)c(Nc3ccccc3S(=O)(=O)C(C)C)n1)CCN(C1CCNCC1)C2 [Example 24]	< 50	–	–	–	–
< 50	< 50	COc1cc2c(cc1Nc1ncc(Cl)c(Nc3ccccc3S(=O)(=O)C(C)C)n1)CCNC2C(F)(F)F (stereo not drawn) [Example 26]	< 50	–	–	–	–
